Measured values published in US20090175845A1, “METHODS FOR IDENTIFYING COMPOUNDS THAT MODULATE PHB DOMAIN PROTEIN ACTIVITY AND COMPOSITIONS THEREOF” (THE TRUSTEES OF COLUMBIA UNIVERSITY IN THE CITY OF NEW YORK, priority 2005, published 2009).

Columns and labels:
[1] = test system: mec-2 null worms expressing the mec-2(C140/174A) gene; experiment: C. elegans gentle touch sensitivity on plates with defined sterols; format: in vivo; details: sterol substituted for cholesterol in the growth medium, FIG. 8C
Description: C. elegans experiments. C. elegans strains were cultured at 20° C., assayed for touch sensitivity, and prepared for immunofluorescence as described previously [Zhang et al. (2004) Curr. Biol. 14:1888-96; Goodman et al. (2002) Nature 415:1039-42]. Briefly, C. elegans strains were cultured at 20° C. as described in the art. Strains were grown for at least three consecutive generations without starvation before carrying out the experiments described herein. Gentle touch and harsh touch sensitivity were assayed in blind tests by stimulating with an eyebrow hair or prodding with a platinum wire, respectively, as described in the art. To quantify the response, the number of responses in about 30 animals to 10 touches delivered alternately near the head and tail was recorded. Whole-mount immunofluorescence microscopy was carried out using methods known in the art.
Media for growth on limiting or no cholesterol or on other sterols were prepared from chloroform-extracted reagents as described by Matyash et al. [(2004) PLoS Biol. 2: e280].
First, a version of MEC-2 with reduced cholesterol binding was generating by mutating the predicted palmitoylation sites of the protein. Briefly, HEK293T cells were transfected with wild type MEC-2 or MEC-2(C140/174A) and labeled with [^3H]palmitic acid or [^3H]photoaffinity cholesterol. Equal expression of proteins in the lysates was confirmed on Western blots. […] Because touch sensitivity of wild-type animals was not affected by this limited cholesterol depletion, the effects observed with the palmitoylation mutant cannot be attributed to indirect effects on neuronal growth or development. Test compounds that target palmitoylation sites in PHB domain proteins can be used to modulate activity of such proteins, for example, by reducing their activity.

Podocin = target: T1, Podocin (Mus musculus, UniProt Q91X05); experiment: Detergent-resistant membrane (DRM) fractionation by density gradient centrifugation; format: cell-based; details: limited cholesterol depletion with MBCD; readdition of cholesterol, FIG. 1D
T1 construct: expressed in transfected cells; host or cells: HEK 293T
T1 sequence (Q91X05 1-385): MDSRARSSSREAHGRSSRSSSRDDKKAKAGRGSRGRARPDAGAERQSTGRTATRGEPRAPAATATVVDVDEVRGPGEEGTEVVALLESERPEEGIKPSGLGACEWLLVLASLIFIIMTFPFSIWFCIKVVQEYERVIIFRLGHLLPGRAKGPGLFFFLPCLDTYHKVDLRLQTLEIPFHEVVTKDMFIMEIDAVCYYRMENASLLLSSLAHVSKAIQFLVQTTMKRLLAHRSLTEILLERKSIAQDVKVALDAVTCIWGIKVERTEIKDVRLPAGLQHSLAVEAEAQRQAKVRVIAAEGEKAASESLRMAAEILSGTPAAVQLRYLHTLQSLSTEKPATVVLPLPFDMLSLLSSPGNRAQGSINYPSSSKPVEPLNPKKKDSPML
Description: Preparation of Detergent-Resistant Membrane Domains and Cholesterol Measurement—For preparation of low-density Triton® X-100—insoluble membrane domains (DRM; LDF) HEK 293T cells were homogenized by 20 strokes in a Dounce homogenizer in 1 ml of MBS buffer (250 mM NaCl, 5 mM EDTA, 10 mM Tris, pH 7.4, proteinase inhibitors) in the presence of 1% Triton® X-100 and centrifuged for ten minutes at 3,000×g at 4° C. The lysates were incubated for 45 minutes on ice in the presence of 1% Triton® X-100, adjusted to 45% sucrose and pipetted at the bottom of an ultracentrifuge tube. Samples were then overlaid with a sucrose step gradient (2 ml of 30% sucrose and 1 ml of 5% sucrose in MBS) as described previously {Huber, 2003 #205}. Gradients were centrifuged for 20 hours at 200,000×g at 4° C. in a swing-out rotor, and seven fractions ([…] each) were collected starting from the top and analyzed by SDS-PAGE. Cholesterol was measured using the Amplex® Red Cholesterol Assay Kit (Molecular Probes).
Cell Culture Studies. Most cell studies used HEK 293T cells that were grown in DMEM as described [Huber et al. (2001) J. Biol. Chem. 18:18]. Cholesterol-depleted cells were prepared by growing cells in DMEM with pravastatin (8 μM) for two days and then methyl-β-cyclodextrine (MBCD; 5 mM) for 30 minutes just before the experiment. […]

SMILES: CC(C)CCC[C@@H](C)[C@H]1CC[C@H]2[C@@H]3CC=C4C[C@@H](O)CC[C@]4(C)[C@H]3CC[C@]12C [cholesterol]
- rescue of reduced touch sensitivity [1]: dependent on the cholesterol concentration
- Podocin in DRM fractions (Podocin): could be reversed
